Measured values taken from ChEMBL document CHEMBL2010711, “Synthesis and comparative evaluation of 4-oxa- and 4-aza-podophyllotoxins as antiproliferative microtubule destabilizing agents” (Bioorg Med Chem Lett, 2012).
Activity calls are given as the source filed them.

How the values were obtained:
Paracentrotus lividus [1] = test: Antimitotic activity against Paracentrotus lividus embryo assessed as cleavage alteration at 2 fold less effective threshold concentration after 2.5 to 6 hrs; assay type: functional, organism-based
U-251 = test: Cytotoxicity against human U251 cells after 48 hrs by trypan blue dye exclusion assay; assay type: functional; conditions: U-251, 48 h
OVCAR-3 = test: Cytotoxicity against human OVCAR3 cells after 48 hrs by trypan blue dye exclusion assay; assay type: functional; conditions: OVCAR-3, 48 h
[2] = Cytotoxicity against human Hs 578T cells after 48 hrs by trypan blue dye exclusion assay; assay type: functional
NCI-H322M = test: Cytotoxicity against human NCI-H322M cells after 48 hrs by trypan blue dye exclusion assay; assay type: functional
SR = test: Cytotoxicity against human SR cells after 48 hrs by trypan blue dye exclusion assay; assay type: functional
NCI-H460 = test: Cytotoxicity against human NCI-H460 cells after 48 hrs by trypan blue dye exclusion assay; assay type: functional; conditions: NCI-H460, 48 h
NCI-H23 = test: Cytotoxicity against human NCI-H23 cells after 48 hrs by trypan blue dye exclusion assay; assay type: functional; conditions: NCI-H23, 48 h
SF-268 = test: Cytotoxicity against human SF268 cells after 48 hrs by trypan blue dye exclusion assay; assay type: functional; conditions: SF-268, 48 h
NCI-H226 = test: Cytotoxicity against human NCI-H226 cells after 48 hrs by trypan blue dye exclusion assay; assay type: functional; conditions: NCI-H226, 48 h
OVCAR-4 = test: Cytotoxicity against human OVCAR4 cells after 48 hrs by trypan blue dye exclusion assay; assay type: functional; conditions: OVCAR-4, 48 h
COLO 205 = test: Cytotoxicity against human COLO205 cells after 48 hrs by trypan blue dye exclusion assay; assay type: functional; conditions: COLO 205, 48 h
SF-295 = test: Cytotoxicity against human SF295 cells after 48 hrs by trypan blue dye exclusion assay; assay type: functional; conditions: SF-295, 48 h
BT-549 = test: Cytotoxicity against human BT549 cells after 48 hrs by trypan blue dye exclusion assay; assay type: functional; conditions: BT-549, 48 h
UACC-257 = test: Cytotoxicity against human UACC257 cells after 48 hrs by trypan blue dye exclusion assay; assay type: functional; conditions: UACC-257, 48 h
OVCAR-8 = test: Cytotoxicity against human OVCAR8 cells after 48 hrs by trypan blue dye exclusion assay; assay type: functional; conditions: OVCAR-8, 48 h
HL-60(TB) = test: Cytotoxicity against human HL-60(TB) cells after 48 hrs by trypan blue dye exclusion assay; assay type: functional; conditions: HL-60, 48 h
SF-539 = test: Cytotoxicity against human SF539 cells after 48 hrs by trypan blue dye exclusion assay; assay type: functional; conditions: SF-539, 48 h
RPMI-8226 = test: Cytotoxicity against human RPMI8226 cells after 48 hrs by trypan blue dye exclusion assay; assay type: functional; conditions: RPMI-8226, 48 h
MOLT-4 = test: Cytotoxicity against human MOLT4 cells after 48 hrs by trypan blue dye exclusion assay; assay type: functional; conditions: MOLT-4, 48 h
SK-MEL-2 = test: Cytotoxicity against human SK-MEL-2 cells after 48 hrs by trypan blue dye exclusion assay; assay type: functional; conditions: SK-MEL-2, 48 h
HT-29 = test: Cytotoxicity against human HT-29 cells after 48 hrs by trypan blue dye exclusion assay; assay type: functional; conditions: HT-29, 48 h
IGROV-1 = test: Cytotoxicity against human IGROV1 cells after 48 hrs by trypan blue dye exclusion assay; assay type: functional; conditions: IGROV-1, 48 h
SN12C = test: Cytotoxicity against human SN12C cells after 48 hrs by trypan blue dye exclusion assay; assay type: functional
UACC-62 = test: Cytotoxicity against human UACC62 cells after 48 hrs by trypan blue dye exclusion assay; assay type: functional; conditions: UACC-62, 48 h
HCT-15 = test: Cytotoxicity against human HCT15 cells after 48 hrs by trypan blue dye exclusion assay; assay type: functional; conditions: HCT-15, 48 h
CCRF-CEM = test: Cytotoxicity against human CCRF-CEM cells after 48 hrs by trypan blue dye exclusion assay; assay type: functional
UO-31 = test: Cytotoxicity against human UO31 cells after 48 hrs by trypan blue dye exclusion assay; assay type: functional; conditions: UO-31, 48 h
RXF 393 = test: Cytotoxicity against human RXF393 cells after 48 hrs by trypan blue dye exclusion assay; assay type: functional; conditions: RXF 393, 48 h
SK-MEL-5 = test: Cytotoxicity against human SK-MEL-5 cells after 48 hrs by trypan blue dye exclusion assay; assay type: functional; conditions: SK-MEL-5, 48 h
A498 = test: Cytotoxicity against human A498 cells after 48 hrs by trypan blue dye exclusion assay; assay type: functional; conditions: A498, 48 h
SK-MEL-28 = test: Cytotoxicity against human SK-MEL-28 cells after 48 hrs by trypan blue dye exclusion assay; assay type: functional; conditions: SK-MEL-28, 48 h
Paracentrotus lividus [3] = test: Antimitotic activity against Paracentrotus lividus embryo assessed as cleavage arrest at 2 fold less effective threshold concentration after 2.5 to 6 hrs; assay type: functional, organism-based
M14 = test: Cytotoxicity against human M14 cells after 48 hrs by trypan blue dye exclusion assay; assay type: functional; conditions: M14, 48 h
MCF7 = test: Cytotoxicity against human MCF7 cells after 48 hrs by trypan blue dye exclusion assay; assay type: functional; conditions: MCF7, 48 h
OVCAR-5 = test: Cytotoxicity against human OVCAR5 cells after 48 hrs by trypan blue dye exclusion assay; assay type: functional; conditions: OVCAR-5, 48 h
SNB-75 = test: Cytotoxicity against human SNB75 cells after 48 hrs by trypan blue dye exclusion assay; assay type: functional; conditions: SNB-75, 48 h
DU-145 = test: Cytotoxicity against human DU145 cells after 48 hrs by trypan blue dye exclusion assay; assay type: functional; conditions: DU-145, 48 h
PC-3 = test: Cytotoxicity against human PC3 cells after 48 hrs by trypan blue dye exclusion assay; assay type: functional; conditions: PC-3, 48 h
EKVX = test: Cytotoxicity against human EKVX cells after 48 hrs by trypan blue dye exclusion assay; assay type: functional
KM12 = test: Cytotoxicity against human KM12 cells after 48 hrs by trypan blue dye exclusion assay; assay type: functional; conditions: KM12, 48 h
CAKI-1 = test: Cytotoxicity against human CAKI-1 cells after 48 hrs by trypan blue dye exclusion assay; assay type: functional; conditions: CAKI-1, 48 h
NCI/ADR-RES = test: Cytotoxicity against human NCI/ADR-RES cells after 48 hrs by trypan blue dye exclusion assay; assay type: functional
MDA-MB-468 = test: Cytotoxicity against human MDA-MB-468 cells after 48 hrs by trypan blue dye exclusion assay; assay type: functional; conditions: MDA-MB-468, 48 h
Paracentrotus lividus [4] = test: Microtubule destabilizing activity in Paracentrotus lividus embryo assessed as embryo spinning at 2 fold less effective threshold concentration after 15 mins to 20 hrs; assay type: functional, organism-based
ACHN = test: Cytotoxicity against human ACHN cells after 48 hrs by trypan blue dye exclusion assay; assay type: functional
HCT-116 = test: Cytotoxicity against human HCT116 cells after 48 hrs by trypan blue dye exclusion assay; assay type: functional; conditions: HCT-116, 48 h
TK-10 = test: Cytotoxicity against human TK10 cells after 48 hrs by trypan blue dye exclusion assay; assay type: functional; conditions: TK-10, 48 h
NCI-H522 = test: Cytotoxicity against human NCI-H522 cells after 48 hrs by trypan blue dye exclusion assay; assay type: functional; conditions: NCI-H522, 48 h
LOX IMVI = test: Cytotoxicity against human LOXIMVI cells after 48 hrs by trypan blue dye exclusion assay; assay type: functional
786-0 = test: Cytotoxicity against human 786-0 cells after 48 hrs by trypan blue dye exclusion assay; assay type: functional; conditions: 786-0, 48 h
MDA-MB-231 = test: Cytotoxicity against human MDA-MB-231 cells after 48 hrs by trypan blue dye exclusion assay; assay type: functional; conditions: MDA-MB-231, 48 h
SK-OV-3 = test: Cytotoxicity against human SKOV3 cells after 48 hrs by trypan blue dye exclusion assay; assay type: functional; conditions: SK-OV-3, 48 h
A549 = test: Cytotoxicity against human A549 cells after 48 hrs by trypan blue dye exclusion assay; assay type: functional; conditions: A549, 48 h
SW-620 = test: Cytotoxicity against human SW620 cells after 48 hrs by trypan blue dye exclusion assay; assay type: functional; conditions: SW-620, 48 h
HCC 2998 = test: Cytotoxicity against human HCC2998 cells after 48 hrs by trypan blue dye exclusion assay; assay type: functional; conditions: HCC 2998, 48 h
HOP-92 = test: Cytotoxicity against human HOP92 cells after 48 hrs by trypan blue dye exclusion assay; assay type: functional; conditions: HOP-92, 48 h
MDA-MB-435 = test: Cytotoxicity against human MDA-MB-435 cells after 48 hrs by trypan blue dye exclusion assay; assay type: functional; conditions: MDA-MB-435, 48 h
SNB-19 = test: Cytotoxicity against human SNB19 cells after 48 hrs by trypan blue dye exclusion assay; assay type: functional; conditions: SNB-19, 48 h

In the case of `COc1cc(OC)cc(C2C3=C(COC3=O)Nc3cc(OC)ccc32)c1` (centres undefined), the Activity (Paracentrotus lividus [1]) is reported as “inactive”, the GI50 (U-251) is reported as < 10 nM and the GI50 (OVCAR-3) is reported as < 10 nM. For the same molecule, the GI50 [2] was < 10 nM, the GI50 (NCI-H322M) was < 10 nM and the GI50 (SR) was < 10 nM. The GI50 (NCI-H460) was < 10 nM, the GI50 (NCI-H23) was < 10 nM and the GI50 (SF-268) was < 10 nM. The GI50 (NCI-H226) was 14400 nM, the GI50 (OVCAR-4) was < 10 nM and the GI50 (COLO 205) was < 10 nM. For the same molecule, the GI50 (SF-295) was < 10 nM, the GI50 (BT-549) was 13.8 nM and the GI50 (UACC-257) was > 100000 nM. The GI50 (OVCAR-8) was 20.4 nM, the GI50 (HL-60(TB)) was < 10 nM and the GI50 (SF-539) was < 10 nM. The GI50 (RPMI-8226) was < 10 nM, the GI50 (MOLT-4) was < 10 nM and the GI50 (SK-MEL-2) was 8160 nM. For the same molecule, the GI50 (HT-29) was < 10 nM, the GI50 (IGROV-1) was < 10 nM and the GI50 (SN12C) was 16.1 nM. The GI50 (UACC-62) was < 10 nM, the GI50 (HCT-15) was < 10 nM and the GI50 (CCRF-CEM) was < 10 nM. The GI50 (UO-31) was 48.8 nM, the GI50 (RXF 393) was < 10 nM and the GI50 (SK-MEL-5) was < 10 nM. The GI50 (A498) was < 10 nM, the GI50 (SK-MEL-28) was < 10 nM and the Activity (Paracentrotus lividus [3]) was “inactive”. The GI50 (M14) was < 10 nM, the GI50 (MCF7) was < 10 nM and the GI50 (OVCAR-5) was 40.4 nM. For the same molecule, the GI50 (SNB-75) was < 10 nM, the GI50 (DU-145) was < 10 nM and the GI50 (PC-3) was < 10 nM. The GI50 (EKVX) was < 10 nM, the GI50 (KM12) was < 10 nM and the GI50 (CAKI-1) was < 10 nM. The GI50 (NCI/ADR-RES) was < 10 nM, the GI50 (MDA-MB-468) was < 10 nM and the Activity (Paracentrotus lividus [4]) was “inactive”. For the same molecule, the GI50 (ACHN) was < 10 nM, the GI50 (HCT-116) was < 10 nM and the GI50 (TK-10) was 39700 nM. For the same molecule, the GI50 (NCI-H522) was < 10 nM, the GI50 (LOX IMVI) was < 10 nM and the GI50 (786-0) was 20.3 nM. The GI50 (MDA-MB-231) was 16.5 nM, the GI50 (SK-OV-3) was < 10 nM and the GI50 (A549) was < 10 nM. The GI50 (SW-620) was < 10 nM, the GI50 (HCC 2998) was < 10 nM and the GI50 (HOP-92) was < 10 nM. For the same molecule, the GI50 (MDA-MB-435) was < 10 nM and the GI50 (SNB-19) was 27.8 nM.
